Results from PubChem BioAssay (NCI).
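Results reflect a 48-hour exposure of cells in 96-well plates to compound at five concentrations. TGI: concentration producing complete growth inhibition.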

Tested on: RXF-631 renal
Test: inhibition of tumour cell growth, NCI panel, 48 h

## COc1ccc(-c2nc3c(nc2-c2ccc(OC)cc2)C(N)=NS(=O)(=O)N3)cc1
  TGI: > 100 µM
